This is an account of results in US12497386B2, “Estrogen receptor-modulating compounds” (RADIUS PHARMACEUTICALS, INC., priority 2018, dated 2025).

Some results are limits rather than exact numbers.

The test system of the first assay is MCF-7 cells. The assay is described as follows: MCF-7 Proliferation Inhibition Assay. In kind it is cell-based, human. The conditions noted are these: Homo sapiens, MCF7, 168 h, 10 pM dose of E2, 7 days incubation, CellTiterGlo viability. Here is the method: Proliferation Assay in MCF-7 and T47D Cells
MCF-7 and T47D cells were stripped for 3 days in phenol red-free RPMI1640 media containing 10% charcoal-stripped fetal bovine serum (CS-FBS) and 1% Penicillin/streptomycin (P/S). Cells (volume of 90 μl/well) were seeded in 96 well plates at a density of 2500 cells/well for MCF-7 cells and 1500 cells/well for T47D cells. On the following day, plates were treated with the test compounds (10× concentration in media, volume of 10 μl/well added) both in the absence and in the presence of two doses of E2 (10 pM and 1 nM). The cells were incubated with test compounds for 7 days. The viability of the cells was assessed using CellTiterGlo (Promega, Cat #G7573) according to the manufacturer's instructions. Growth inhibition curves and IC50 values were calculated using the GraphPadPrism 6.0 software. Data values shown in Table 1 were obtained using the 10 pM dose of E2.
In general terms: ATP-based viability assays read luminescence as a measure of living cells.
As to `Cc1ccccc1-c1c(F)c2cc(O)ccc2n1Cc1ccc(CCNCCCF)cc1` [Compound D-69, 3-Fluoro-1-(4-(2-((3-fluoropropyl)amino)ethyl)benzyl)-2-(o-tolyl)-1H-indol-5-ol], the IC50 (in general, the point on the concentration scale where inhibition reaches its midpoint) was below 1 nM.

`Cc1ccccc1-c1c(F)c2cc(O)ccc2n1Cc1ccc(CCNCCF)cc1` [Compound D-70, 3-Fluoro-1-(4-(2-((2-fluoroethyl)amino)ethyl)benzyl)-2-(o-tolyl)-1H-indol-5-ol]: the IC50 is below 1 nM.

On to `CCNCCc1ccc(Cn2c(-c3c(C)cccc3C)c(F)c3cc(O)ccc32)cc1` [Compound D-78, 2-(2,6-Dimethylphenyl)-1-(4-(2-(ethylamino)ethyl)benzyl)-3-fluoro-1H-indol-5-ol], for which the IC50 was below 1 nM.

With `CCNCCc1ccc(Cn2c(-c3ccccc3C)c(F)c3c4cn[nH]c4ccc32)cc1` [Compound D-85, N-Ethyl-2-(4-((8-fluoro-7-(o-tolyl)pyrrolo[3,2-e]indazol-6(3H)-yl)methyl)phenyl)ethan-1-amine], the IC50 is below 1 nM. For `CCCNCCc1ccc(Cn2c(-c3ccccc3OC)c(F)c3cc(O)ccc32)cc1` [Compound D-87, 3-Fluoro-2-(2-methoxyphenyl)-1-(4-(2-(propylamino)ethyl)benzyl)-1H-indol-5-ol], the concentration for half-maximal inhibition (IC50) is below 1 nM.

The compound `Cc1ccccc1-c1c(F)c2c3cn[nH]c3ccc2n1Cc1ccc(CCNCC2CC2)cc1` [Compound D-88, N-(Cyclopropylmethyl)-2-(4-((8-fluoro-7-(o-tolyl)pyrrolo[3,2-e]indazol-6(3H)-yl)methyl)phenyl)ethan-1-amine] gave an IC50 below 1 nM. In turn, `Cc1ccccc1-c1c(F)c2c3cn[nH]c3ccc2n1Cc1ccc(CCNC2CCC2)cc1` [Compound D-89, N-(4-((8-Fluoro-7-(o-tolyl)pyrrolo[3,2-e]indazol-6(3H)-yl)methyl)phenethyl)cyclobutanamine] showed an IC50 below 1 nM.

`Cc1ccccc1-c1c(F)c2c3cn[nH]c3ccc2n1Cc1ccc(CCNC2CC2)cc1` [Compound D-90, N-(4-((8-Fluoro-7-(o-tolyl)pyrrolo[3,2-e]indazol-6(3H)-yl)methyl)phenethyl)cyclopropanamine]: the IC50 was below 1 nM. Same read-out and setting: the figure for `CCCNCCc1ccc(Cn2c(-c3ccccc3C)c(F)c3c4cn[nH]c4ccc32)cc1` [Compound D-91, N-(4-((8-fluoro-7-(o-tolyl)pyrrolo[3,2-e]indazol-6(3H)-yl)methyl)phenethyl)propan-1-amine] is below 1 nM; for `CCCNCCc1ccc(Cn2c(-c3ccc(OC)cc3C)c(F)c3cc(O)ccc32)cc1` [Compound D-96, 3-Fluoro-2-(4-methoxy-2-methylphenyl)-1-(4-(2-(propylamino)ethyl)benzyl)-1H-indol-5-ol] it is below 1 nM; for `Cc1ccccc1-c1c(F)c2c3cn[nH]c3ccc2n1Cc1ccc(CCNCCF)cc1` [Compound D-101, 2-Fluoro-N-(4-((8-fluoro-7-(o-tolyl)pyrrolo[3,2-e]indazol-6(3H)-yl)methyl)phenethyl)ethan-1-amine] it is below 1 nM.

Consider `Cc1ccccc1-c1c(F)c2c3cn[nH]c3ccc2n1Cc1ccc(CCNCCCF)cc1` [Compound D-102, 3-Fluoro-N-(4-((8-fluoro-7-(o-tolyl)pyrrolo[3,2-e]indazol-6(3H)-yl)methyl)phenethyl)propan-1-amine], for which the 50% inhibitory concentration (IC50) is below 1 nM. The compound `COc1ccc(-c2c(F)c3cc(O)ccc3n2Cc2ccc(CCNCCF)cc2)c(C)c1` [Compound D-103, 3-Fluoro-1-(4-(2-((2-fluoroethyl)amino)ethyl)benzyl)-2-(4-methoxy-2-methylphenyl)-1H-indol-5-ol] had an IC50 below 1 nM. The same measure, in the same setting: next, `COc1ccc(-c2c(F)c3cc(O)ccc3n2Cc2ccc(CCNCCCF)cc2)c(C)c1` [Compound D-104, 3-Fluoro-1-(4-(2-((3-fluoropropyl)amino)ethyl)benzyl)-2-(4-methoxy-2-methylphenyl)-1H-indol-5-ol]: below 1 nM; `CCNCCc1ccc([C@@H]2c3ccc(O)cc3CC[C@@H]2c2ccccc2)cc1` [LA-18, (5R,6S)-5-(4-(2-(Ethylamino)ethyl)phenyl)-6-phenyl-5,6,7,8-tetrahydronaphthalen-2-ol]: below 1 nM; `Oc1ccc2c(c1)CC[C@H](c1ccccc1)[C@@H]2c1ccc(CCNCC2CC2)cc1` [LA-19, (5R,6S)-5-(4-(2-((Cyclopropylmethyl)amino)ethyl)phenyl)-6-phenyl-5,6,7,8-tetrahydronaphthalen-2-ol]: below 1 nM. Take `CCNCCc1ccc([C@@H]2c3ccc(O)cc3CC[C@@H]2c2ccccc2C)cc1` [LA-21, (5R,6S)-5-(4-(2-(Ethylamino)ethyl)phenyl)-6-(o-tolyl)-5,6,7,8-tetrahydronaphthalen-2-ol]: the IC50 was below 1 nM. Compound `Cc1ccccc1[C@H]1CCc2cc(O)ccc2[C@H]1c1ccc(CCNCC2CC2)cc1` [LA-22, (5R,6S)-5-(4-(2-((cyclopropylmethyl)amino)ethyl)phenyl)-6-(o-tolyl)-5,6,7,8-tetrahydronaphthalen-2-ol] yielded an IC50 below 1 nM. On the same count and under the same terms, the figure for `CCNCCc1ccc(C2c3ccc(O)cc3CCC2c2ccc(C(C)C)cc2)cc1` (stereo not shown) [LA-31, 5-(4-(2-(Ethylamino)ethyl)phenyl)-6-(4-isopropylphenyl)-5,6,7,8-tetrahydronaphthalen-2-ol] is below 1 nM; for `CCCNCCc1ccc(C2c3ccc(O)cc3CCC2c2ccc(C(C)C)cc2)cc1` (stereo not shown) [LA-32, 6-(4-Isopropylphenyl)-5-(4-(2-(propylamino)ethyl)phenyl)-5,6,7,8-tetrahydronaphthalen-2-ol] it is below 1 nM.

For `CC(C)c1ccc(C2CCc3cc(O)ccc3C2c2ccc(CCNCC3CC3)cc2)cc1` (stereo not shown) [LA-33, 5-(4-(2-((Cyclopropylmethyl)amino)ethyl)phenyl)-6-(4-isopropylphenyl)-5,6,7,8-tetrahydronaphthalen-2-ol], the concentration for half-maximal inhibition (IC50) was below 1 nM.

In another assay the test system is E2-induced increase in uterine weight in immature rats. Nature of the assay: Immature Rat Uterine Assay. The conditions noted are these: oral dose of 3 mg/kg in combination with E2 (0.01 mg/kg), once daily for three consecutive days. The assay is classed as in vivo, Sprague-Dawley rat. The protocol: Immature Rat Uterine Assay
Sprague-Dawley rat pups were weaned at 19 days of age, randomized into groups (n=6), and administered vehicle (aqueous 20% HPBCD, 10% PEG400 in H2O), E2 (0.01 mg/kg), test compounds (0.1 mg/kg-3 mg/kg) in combination with E2 (0.01 mg/kg), either by subcutaneous injection or by oral gavage, once daily for three consecutive days. Twenty-four hours after the final dose, all animals were killed by carbon dioxide inhalation. Body weights and wet uterine weights were recorded for each animal. GraphPadPrism 6.0 software was used to analyze data.
As to `Cc1ccccc1-c1c(F)c2c3cn[nH]c3ccc2n1Cc1ccc(CCNCCCF)cc1` [Compound D-102, 3-Fluoro-N-(4-((8-fluoro-7-(o-tolyl)pyrrolo[3,2-e]indazol-6(3H)-yl)methyl)phenethyl)propan-1-amine], the wet uterine weight entry is on record as “suppressed wet uterine weight to baseline”.
